According to ChEMBL document CHEMBL5321219, “Selective degradation of cellular BRD3 and BRD4-L promoted by PROTAC molecules in six cancer cell lines” (Eur J Med Chem, 2023):
Activity calls are given as the source filed them. No cut-off for these calls is given here.

Tests used:
[1] = target: T1, Protein cereblon/Bromodomain-containing protein 4 (Homo sapiens) (UniProt O60885+Q96SW2); assay: PROTAC activity at CRBN/BRD4-S in human MM1.S cells assessed as induction of protein degradation at 2 to 10 nM measured after 24 hrs by Western blot analysis; assay type: cell-based; conditions: dose 2-10 nM
T1 sequence (Q96SW2 whole entry, looked up, other chains not shown): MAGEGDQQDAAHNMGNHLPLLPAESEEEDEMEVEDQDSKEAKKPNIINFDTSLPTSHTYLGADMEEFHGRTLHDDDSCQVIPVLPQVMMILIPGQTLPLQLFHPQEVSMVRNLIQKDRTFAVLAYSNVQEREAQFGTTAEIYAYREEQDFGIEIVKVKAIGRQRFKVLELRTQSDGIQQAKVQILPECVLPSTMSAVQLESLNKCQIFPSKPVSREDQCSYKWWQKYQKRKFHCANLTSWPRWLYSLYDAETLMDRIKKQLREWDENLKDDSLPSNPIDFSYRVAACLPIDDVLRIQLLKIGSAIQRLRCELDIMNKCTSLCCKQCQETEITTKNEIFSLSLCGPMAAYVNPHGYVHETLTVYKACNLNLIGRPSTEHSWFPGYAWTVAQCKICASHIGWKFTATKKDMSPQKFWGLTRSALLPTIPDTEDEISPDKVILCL

[2] = target: Protein cereblon/Bromodomain-containing protein 2 (Homo sapiens) (UniProt P25440+Q96SW2); assay: PROTAC activity at CRBN/BRD2 in human MM1.S cells assessed as induction of protein degradation at 2 to 10 nM measured after 24 hrs by Western blot analysis; assay type: cell-based; conditions: dose 2-10 nM
Chain of Protein cereblon/Bromodomain-containing protein 2 (Homo sapiens) (P25440 whole entry, looked up): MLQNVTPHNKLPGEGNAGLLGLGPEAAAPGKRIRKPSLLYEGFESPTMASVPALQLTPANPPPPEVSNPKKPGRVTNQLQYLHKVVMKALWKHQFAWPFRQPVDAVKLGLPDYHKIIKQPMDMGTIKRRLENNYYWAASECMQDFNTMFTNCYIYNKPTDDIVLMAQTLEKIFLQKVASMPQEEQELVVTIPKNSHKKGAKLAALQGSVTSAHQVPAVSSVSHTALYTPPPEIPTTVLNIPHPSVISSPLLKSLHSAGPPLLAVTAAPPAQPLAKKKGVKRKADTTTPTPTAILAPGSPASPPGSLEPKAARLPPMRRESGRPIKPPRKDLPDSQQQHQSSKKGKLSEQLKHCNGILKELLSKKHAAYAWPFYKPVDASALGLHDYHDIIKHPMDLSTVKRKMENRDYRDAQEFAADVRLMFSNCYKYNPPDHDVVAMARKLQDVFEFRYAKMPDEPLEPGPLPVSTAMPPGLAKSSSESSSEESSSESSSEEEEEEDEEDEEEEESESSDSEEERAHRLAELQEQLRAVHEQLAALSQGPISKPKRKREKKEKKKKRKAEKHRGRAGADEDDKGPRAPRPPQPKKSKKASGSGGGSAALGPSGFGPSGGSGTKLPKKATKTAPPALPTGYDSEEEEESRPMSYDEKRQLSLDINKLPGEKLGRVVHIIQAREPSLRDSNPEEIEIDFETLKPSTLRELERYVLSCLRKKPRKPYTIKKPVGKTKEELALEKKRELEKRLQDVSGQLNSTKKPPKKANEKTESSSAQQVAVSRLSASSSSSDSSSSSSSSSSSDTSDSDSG
Chain of Protein cereblon/Bromodomain-containing protein 2 (Homo sapiens) (Q96SW2 whole entry, looked up): as the sequence (Q96SW2 whole entry, looked up, other chains not shown) above

MV4-11 = assay: Antiproliferative activity against human MV4-11 cells assessed as cell growth inhibition measured after 3 days by CellTitre-Glo assay; assay type: functional, cell-based; conditions: MV4-11, 72 h
MM1.S = assay: Antiproliferative activity against human MM1.S cells assessed as cell growth inhibition measured after 4 days by CellTitre-Glo assay; assay type: functional, cell-based; conditions: 96 h
[3] = target: T2, Bromodomain-containing protein 3 (Homo sapiens, UniProt Q15059); assay: Binding affinity to recombinant human BRD3 BD1 (24 to 144 residues) assessed as inhibition constant by fluorescence polarization binding assay
T2 sequence (Q15059 whole entry, the tested form may be a part): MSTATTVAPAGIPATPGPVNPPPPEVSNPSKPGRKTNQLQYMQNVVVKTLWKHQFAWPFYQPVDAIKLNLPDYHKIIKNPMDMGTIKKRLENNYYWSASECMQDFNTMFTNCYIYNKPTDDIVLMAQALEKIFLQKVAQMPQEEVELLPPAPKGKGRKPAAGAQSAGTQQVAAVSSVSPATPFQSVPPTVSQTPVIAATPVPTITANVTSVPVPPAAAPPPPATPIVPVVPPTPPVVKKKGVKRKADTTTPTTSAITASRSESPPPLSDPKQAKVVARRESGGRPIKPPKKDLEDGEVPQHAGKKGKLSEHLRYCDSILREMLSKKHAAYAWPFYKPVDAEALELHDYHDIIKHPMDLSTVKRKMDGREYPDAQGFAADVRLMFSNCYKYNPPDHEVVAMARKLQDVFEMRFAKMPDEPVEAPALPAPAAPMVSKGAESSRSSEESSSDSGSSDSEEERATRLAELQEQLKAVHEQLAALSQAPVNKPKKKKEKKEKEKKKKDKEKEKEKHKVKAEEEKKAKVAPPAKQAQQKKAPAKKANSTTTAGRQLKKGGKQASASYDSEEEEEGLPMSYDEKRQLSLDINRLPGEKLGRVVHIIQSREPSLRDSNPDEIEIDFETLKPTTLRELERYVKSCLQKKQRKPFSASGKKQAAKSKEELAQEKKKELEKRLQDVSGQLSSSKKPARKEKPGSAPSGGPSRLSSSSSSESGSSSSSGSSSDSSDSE

[4] = target: T2, Bromodomain-containing protein 3; assay: Binding affinity to recombinant human BRD3 BD2 (306 to 417 residues) assessed as inhibition constant by fluorescence polarization binding assay
[5] = target: T1, Protein cereblon/Bromodomain-containing protein 4 (Homo sapiens); assay: PROTAC activity at CRBN/BRD4-L in human MM1.S cells assessed as induction of protein degradation at 2 to 10 nM measured after 24 hrs by Western blot analysis; assay type: cell-based; conditions: dose 2-10 nM
[6] = target: T3, Protein cereblon/Bromodomain-containing protein 3 (Homo sapiens) (UniProt Q15059+Q96SW2); assay: PROTAC activity at CRBN/BRD3 in human MM1.S cells assessed as induction of protein degradation at 2 to 10 nM measured after 24 hrs by Western blot analysis; assay type: cell-based; conditions: dose 2-10 nM
T3 sequence (Q15059 2-726 limits assumed): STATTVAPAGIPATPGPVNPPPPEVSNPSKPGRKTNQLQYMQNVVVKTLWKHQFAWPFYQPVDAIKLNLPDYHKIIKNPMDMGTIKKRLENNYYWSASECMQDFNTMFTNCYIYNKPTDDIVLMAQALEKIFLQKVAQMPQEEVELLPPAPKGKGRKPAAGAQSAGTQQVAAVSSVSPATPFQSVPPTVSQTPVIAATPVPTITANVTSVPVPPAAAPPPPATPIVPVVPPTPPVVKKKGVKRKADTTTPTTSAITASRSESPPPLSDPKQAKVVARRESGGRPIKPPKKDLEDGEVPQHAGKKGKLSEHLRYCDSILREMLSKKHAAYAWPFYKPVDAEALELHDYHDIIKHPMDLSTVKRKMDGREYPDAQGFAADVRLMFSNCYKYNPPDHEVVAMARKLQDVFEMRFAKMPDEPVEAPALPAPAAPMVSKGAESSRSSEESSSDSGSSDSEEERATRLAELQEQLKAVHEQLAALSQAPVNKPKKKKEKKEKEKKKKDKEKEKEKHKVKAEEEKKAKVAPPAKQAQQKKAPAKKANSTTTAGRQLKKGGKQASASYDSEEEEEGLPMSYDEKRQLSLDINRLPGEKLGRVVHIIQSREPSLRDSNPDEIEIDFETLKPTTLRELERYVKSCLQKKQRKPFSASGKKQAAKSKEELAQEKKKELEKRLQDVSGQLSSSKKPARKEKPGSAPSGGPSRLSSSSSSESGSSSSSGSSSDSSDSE
T3 sequence (Q96SW2 whole entry partner): as the sequence (Q96SW2 whole entry, looked up, other chains not shown) above

[7] = target: T3, Protein cereblon/Bromodomain-containing protein 3 (Homo sapiens); assay: PROTAC activity at CRBN/BRD3 in human MM1.S cells assessed as induction of protein degradation at 2 nM measured after 24 hrs by Western blot analysis; assay type: cell-based
[8] = target: T1, Protein cereblon/Bromodomain-containing protein 4 (Homo sapiens); assay: PROTAC activity at CRBN/BRD4-L in human MM1.S cells assessed as induction of protein degradation at 2 nM measured after 24 hrs by Western blot analysis; assay type: cell-based

Activity [1] | Activity [2] | IC50 (MV4-11) | IC50 (MM1.S) | Ki [3] | Ki [4] | Activity [5] | Activity [6] | Activity [7] | Activity [8] | SMILES
inactive | inactive | 536 nM | 5330 nM | 29.3 nM | 6.62 nM | inactive | inactive |  |  | Cc1nnc2n1-c1ccc(-c3cnn(CC(=O)NCCCCC#Cc4cccc5c4CN(C4CCC(=O)NC4=O)C5=O)c3)cc1C(Nc1ccc(Cl)cc1)CC2 (stereo unspecified)
inactive | inactive | 178 nM | 1590 nM | 32.9 nM | 6.29 nM | inactive | inactive |  |  | Cc1nnc2n1-c1ccc(-c3cnn(CC(=O)NCCCCCC#Cc4cccc5c4CN(C4CCC(=O)NC4=O)C5=O)c3)cc1C(Nc1ccc(Cl)cc1)CC2 (stereo unspecified)
 |  | 649 nM | 1310 nM | 48 nM | 5.04 nM |  |  |  |  | Cc1nnc2n1-c1ccc(-c3ccc(CNCCCC#Cc4cccc5c4CN(C4CCC(=O)NC4=O)C5=O)cc3)cc1C(Nc1ccc(Cl)cc1)CC2 (stereo unspecified)
inactive | inactive | 2920 nM | 8190 nM | 37.8 nM | 4.96 nM | inactive | inactive |  |  | Cc1nnc2n1-c1ccc(-c3cnn(CC(=O)NCCCC#Cc4cccc5c4CN(C4CCC(=O)NC4=O)C5=O)c3)cc1C(Nc1ccc(Cl)cc1)CC2 (stereo unspecified)
 |  | 690 nM | 2620 nM | 24.6 nM | 4.81 nM |  |  |  |  | Cc1nnc2n1-c1ccc(-c3ccc(CNCC#Cc4cccc5c4CN(C4CCC(=O)NC4=O)C5=O)cc3)cc1C(Nc1ccc(Cl)cc1)CC2 (stereo unspecified)
 |  | 233 nM | 818 nM | 15.5 nM | 5.42 nM |  |  | Active | Active | Cc1nnc2n1-c1ccc(-c3ccc(CNCCCCCc4cccc5c4CN(C4CCC(=O)NC4=O)C5=O)cc3)cc1C(Nc1ccc(Cl)cc1)CC2 (stereo unspecified)
 |  | 0.76 nM | 27.3 nM | 7.94 nM | 2.26 nM |  |  | Active | Active | Cc1nnc2n1-c1ccc(-c3ccc(CNCCCCCCCc4cccc5c4CN(C4CCC(=O)NC4=O)C5=O)cc3)cc1C(Nc1ccc(Cl)cc1)CC2 (stereo unspecified)
 |  | 0.4 nM | 31.4 nM | 6.73 nM | 2.16 nM |  |  | Active | Active | Cc1nnc2n1-c1ccc(-c3ccc(CNCCCCCCc4cccc5c4CN(C4CCC(=O)NC4=O)C5=O)cc3)cc1C(Nc1ccc(Cl)cc1)CC2 (stereo unspecified)
 |  | 1220 nM | 3790 nM | 267 nM | 47.2 nM |  |  |  |  | CNCc1ccc(-c2ccc3c(c2)C(Nc2ccc(Cl)cc2)CCc2nnc(C)n2-3)cc1 (stereo unspecified)
 |  | 71.4 nM | 158 nM | 12.1 nM | 4.73 nM |  |  |  |  | Cc1nnc2n1-c1ccc(-c3ccc(CNCCCCC#Cc4cccc5c4CN(C4CCC(=O)NC4=O)C5=O)cc3)cc1C(Nc1ccc(Cl)cc1)CC2 (stereo unspecified)
 |  | 1560 nM | 3370 nM | 22.2 nM | 5.72 nM |  |  |  |  | Cc1nnc2n1-c1ccc(-c3ccc(CNCCC#Cc4cccc5c4CN(C4CCC(=O)NC4=O)C5=O)cc3)cc1C(Nc1ccc(Cl)cc1)CC2 (stereo unspecified)
inactive | inactive | 1010 nM | 2830 nM | 18.5 nM | 2.46 nM | inactive | inactive |  |  | Cc1nnc2n1-c1ccc(-c3ccc(CNCCCc4cccc5c4CN(C4CCC(=O)NC4=O)C5=O)cc3)cc1C(Nc1ccc(Cl)cc1)CC2 (stereo unspecified)
 |  | 19.9 nM | 156 nM | 15.1 nM | 5.89 nM |  |  | Active | Active | Cc1nnc2n1-c1ccc(-c3ccc(CNCCCCCC#Cc4cccc5c4CN(C4CCC(=O)NC4=O)C5=O)cc3)cc1C(Nc1ccc(Cl)cc1)CC2 (stereo unspecified)
